Test results: US20050282814A1, “Vasculostatic agents and methods of use thereof” (TargeGen, Inc., priority 2002, published 2005)
Counter-ions that a name gives are not always drawn.

Tested on: CT-26 Colon carcinoma cells
Experiment: CT-26 colon carcinoma lung metastases model, alone or with doxorubicin or docetaxel
Type: in vivo, Balb/C mice
Settings: CT-26 lung metastases; I.P. every 3 days for 3 cycles; day 20
Method: FIG. 3 illustrates the effect of compounds administered in conjunction with doxorubicin in an in vivo model of metastatic colon cancer (CT-26 adenocarcinoma). Syngeneic CT-26 Colon carcinoma cells were injected I.V. in order to establish lung metastases in Balb/C mice. Beginning 10 days after cells were injected, indicated test agents were given I.P. every 3 days for 3 cycles. Animals were sacrificed at day 20, lungs were collected, and weighed. Net tumor burden is the weight of tumor-bearing lungs minus the average weight of normal control lungs. N=5/group, p<0.02. In these graphs, compound A is 6,7-bis(4-hydroxyphenyl)-pteridin-4-ylamine sulfate salt, and compound B is 6,7-diphenyl-pteridine-2,4-diamine.
FIG. 4 illustrates the effects of compounds of the present invention for co-drug therapy with Taxotere as described herein. Syngeneic CT-26 Colon carcinoma cells were used in order to establish lung metastases in Balb/C mice as described for FIG. 3. 6,7-bis(4-hydroxyphenyl)-pteridin-4-ylamine, sulfate salt (compound A) and 6,7-diphenyl-pteridine-2,4-diamine (compound B) from FIG. 1 are shown in FIG. 4.
FIG. 6 illustrates the effect of compounds administered in conjunction with docetaxel in the in vivo model of metastatic colon cancer (CT-26 adenocarcinoma) described for FIG. 4. N=5/group, p<0.02. […]

**Q.** `Nc1ncnc2nc(-c3ccc(O)cc3)c(-c3ccc(O)cc3)nc12` [compound A, 6,7-bis(4-hydroxyphenyl)-pteridin-4-ylamine sulfate salt] was tested. Which “reduction of tumor burden in combination with docetaxel” value did it give?
**A.** greater than 80%

**Q.** What about the “reduction of tumor burden in combination with doxorubicin” value of the same compound?
**A.** greater than 60%
